Results: US20240366596A1, “TREATMENT OF HFPEF IN POST-MENOPAUSAL WOMEN WITH AN SGC STIMULATOR” (Cyclerion Therapeutics, Inc., priority 2021, published 2024)
Read-outs that look alike come from different tables or passages of the source.

Assays:
[1] = tested on: patients with chronic HF with HFpEF; settings: top-line results; cited from earlier work
participants with HFpEF [2] = test: CAPACITY HFpEF Phase 2 trial of praliciguat: cardiometabolic endpoints (blood pressure, HbA1c); type: in vivo, human; settings: Week 12
Source text: (§1) A Multicenter, Randomized, Double-Blind, Placebo-Controlled, Phase 2 Study Evaluating the Safety and Efficacy of Different Doses of Praliciguat (IW-1973, Compound I-1) Over 12 Weeks in Patients with Heart Failure with Preserved Ejection Fraction (CAPACITY HFpEF).
(§2) The primary safety endpoints were based on the incidence of treatment-emergent adverse events (TEAEs) and of TEAEs that were considered study drug-related by the investigator. TEAEs were defined as AEs that started or worsened in severity after administration of study drug. Medical history, prior and concomitant medications and surgeries/procedures, and adverse events (AEs) were collected throughout the study. Physical examination, vital sign measurements including orthostatic blood pressures, clinical laboratory tests, pregnancy tests, and ECGs were performed. Blood was also collected to determine pharmacokinetic (PK) parameters and plasma concentrations of praliciguat.
Other exploratory endpoints included assessment of echocardiographic parameters (as determined by an independent, central echocardiography core laboratory that was blinded to treatment assignment); changes from baseline to Week 12 and Follow-up visits in New York Heart Association (NYHA) functional classification (I, II, III, or IV); cardiac events (hospitalizations of CV etiology and all deaths were analyzed by the central, independent, blinded cardiac events adjudicators who determined if an event was due to heart failure or was of other CV etiology); changes from baseline to Week 12 in blood and urine biomarker levels that are relevant to HF pathophysiology; and changes from baseline to Week 12 in NT-proBNP values, urine albumin creatinine ratios (UACRs), estimated glomerular filtration rates (eGFRs), and HOMA-IR changes. Changes from baseline responses in participants' self-administered health-related quality-of-life (QOL) questionnaires were also tabulated and analyzed, including the Kansas City Cardiomyopathy Questionnaire (KCCQ), the Sheehan Disability Scale (SDS), the EuroQol (EQ) 5D-5L, and the Quick Inventory of Depressive Symptomatology Self-Report 16-item version (QIDS-SR-16).
Whereas the change from baseline relative to placebo in the general population was a reduction of 3.5 mmHg in the systolic blood pressure, this change was 7.9 mmHg reduction for the subpopulation of elderly women. Similarly, whereas the change from baseline relative to placebo in the general population was a reduction of 2.1 mmHg in the diastolic blood pressure, this change was 8.2 mmHg reduction for the subpopulation of elderly women. And also similarly, the change from baseline relative to placebo in the general population was a reduction of 0.18% points in the measurement of HbA1C, this change was 0.41% reduction from baseline relative to placebo for the subpopulation of elderly women

participants with HFpEF [3] = test: CAPACITY HFpEF Phase 2 trial of praliciguat: 6-minute walk test (6MWT); type: in vivo, human
Source text: as §1
(§3) The pre-specified major secondary endpoints were the change from baseline in 6-minute walk test (6MWT) distance at Week 12, the change from baseline in ventilatory efficiency as defined by VE/VCO2 slope (minute ventilation/volume of carbon dioxide production) as obtained via CPET at Week 12, and the number of CPET responders defined as participants who improved by at least 1.5 mL O2/kg/min in peak VO2 from baseline to Week 12. In the CPET responder analysis, participants who were hospitalized or who died due to heart failure during the study Treatment Period or were missing Week 12 post-dose CPET values were considered to be non-responders.
(§4) This Phase 2, multicenter, randomized, double-blind, placebo-controlled, parallel-group study evaluated the safety and efficacy of praliciguat compared with placebo. The study randomized 196 adults with established heart failure (HF) and limited exercise capacity with an ejection fraction (EF) of at least 40% and who had at least 2 of 4 risk factors for HFpEF (diabetes/prediabetes, hypertension, obesity, and advanced age) (see Inclusion and Exclusion Criteria below).
Screening Period: The Screening Period started with the signing of the ICF at the Screening Visit and lasted up to 45 days. At the Screening Visit, potential participants underwent screening procedures to determine their initial study eligibility. At the Baseline Visit, participants returned to the clinic for additional screening procedures to confirm their eligibility, including assessment of their CPET values, vital sign measurements, and blood and urine sample collections, and to receive urine sample collection supplies to take home. The Screening Visit could be combined with the Baseline Visit if the participant was fasted for blood and urine collections. CPET and 6MWT were to occur within 14 days before Randomization. The end of the Screening Period coincided with the beginning of the Treatment Period.

participants with HFpEF [4] = test: CAPACITY HFpEF Phase 2 trial of praliciguat: safety (treatment-emergent adverse events); type: in vivo, human
Source text: as §1, §2, §4

participants with HFpEF [5] = test: CAPACITY HFpEF Phase 2 trial of praliciguat: cardiopulmonary exercise testing (CPET); type: in vivo, human
Source text: as §1
The primary objectives of this clinical study (ClinicalTrials.gov Identifier NCT03254485) were to assess the safety of oral praliciguat when administered for approximately 12 weeks to participants with HFpEF, and to evaluate the effect of oral praliciguat on peak exercise capacity (as measured by oxygen consumption [VO2]) when administered for approximately 12 weeks to participants with HFpEF, both in all participants and in participants without permanent or persistent atrial fibrillation.
The primary efficacy endpoint was the change from baseline in peak VO2 as measured by cardiopulmonary exercise testing (CPET) at Week 12 of the Treatment period. CPET was performed at baseline, at Week 8 and again at Week 12 using a highly standardized study-specific protocol. To participate in this study, each study site had to submit 2 studies to the CPET Core Laboratory at Massachusetts General Hospital core laboratory for review, and studies had to be determined to be of adequate quality before the site was deemed CPET qualified. For the 3 CPETs required by the study protocol, each study participant was to use the same form of exercise (treadmill or bicycle) and undergo the CPETs at the same time of day (+2 hours), ≥1 hour after study medication dosing. As part of the procedure, participants exercised to peak capacity beginning with unloaded exercise and continuing with a symptom-limited incremental ramp to peak VO2 with requisite respiratory exchange ratio (RER)≥1. For the baseline CPET, a participant's RER had to be ≥1.0 in order to indicate an adequate test (i.e., adequate effort on the part of the study participant, to try to mitigate stopping for non-cardiopulmonary reasons [e.g., effort-related or musculoskeletal]). Additional CPET-related study eligibility criteria included a peak VO2 of ≤80% of the predicted or age- and sex-adjusted normal level (FLETCHER G F, et al. Exercise standards. A statement for healthcare professionals from the American Heart Association. Writing Group. Circulation. 1995;91 [2]: 580-615), which served as an objective indicator of exercise intolerance characteristic of HF. For the Week 8 and End of Treatment CPETs, participants were to exercise to maximum effort, ideally to RER≥1.0. Analysis of CPET measurements for eligibility and for efficacy analyses were conducted by the independent central CPET Core Lab that was blinded to treatment allocation.
as §3, §4
Dosing on Days 1 to 14 (±3) was 20 mg BID (twice daily). Dosing on Day 15 (±3) onward was 40 mg QD (once daily). […]

[6] = tested on: subjects with symptomatic HF and an LVEF≥45%; settings: women, spironolactone vs placebo, subjects from the Americas; cited from earlier work
[7] = tested on: women compared with men with heart failure and preserved ejection fraction; settings: cited from earlier work
obese ZSF1 rats = test: ZSF1 rat model of diabetic nephropathy with metabolic syndrome; type: in vivo
Source text: All data are plotted as mean±SEM. #p<0.05. ##p<0.01 vs obese control.
Aged ZSF1 rats have also been reported to develop HF consistent with HFpEF. In the ZSF1 model of diabetic nephropathy and metabolic syndrome, olinciguat was renoprotective and associated with lower circulating glucose, cholesterol, and triglycerides, all of which are relevant for this the population of post-menopausal women with HFpEF that tend to show a metabolic phenotype. Also in this model, baseline plasma NT-proBNP levels were similar in all obese ZSF1 groups [obese, group treated with enalapril (ENP), ENP+OLI10 (enalapril+oli at 10 mg/kg), and ENP+OLI30 (enalapril+oli at 30 mg/kg)]. NT-proBNP, analyzed as change from baseline to the end of treatment, increased in the obese control and ENP groups, and decreased in ENP+OLI10 and ENP+OLI30 groups (FIG. 5).

[8] = tested on: participants with chronic HF, an LVEF of at least 45% (i.e., HFpEF); settings: cited from earlier work
[9] = tested on: participants with chronic HF and an ejection fraction (EF) of ≥45% (i.e., HFpEF); settings: cited from earlier work
[10] = tested on: normotensive and hypertensive rats; test: Blood pressure in normotensive and hypertensive rats; type: in vivo, rat
[11] = tested on: Dahl salt-sensitive rat model; test: Dahl salt-sensitive (DSS) hypertension rat model of HFpEF; type: in vivo; settings: olinciguat 10 mg/kg, FIG. 4
Procedure: All data are plotted as mean±SEM. **p<0.01. ***p<0.001 vs high-salt (HS) control.
The cardioprotective effects of olinciguat were tested in two animal models of HF: the rat post-myocardial infarction (MI) model of heart failure with reduced ejection fraction and in the Dahl salt-sensitive (DSS) hypertension model, which develops HFpEF.

[12] = 40 mg praliciguat vs placebo, Primary Analytic Population, Week 12
[13] = women of age > 70, week 12, 40 mg
[14] = women of age > 70, week 12, 40 mg vs placebo
[15] = elderly women (older than 70), 12 weeks of treatment, CPET responder analysis
[16] = pooled three highest vericiguat dose arms, 12 weeks, vs placebo

OC[C@H]1O[C@@H](c2ccc(Cl)c(Cc3ccc(O[C@H]4CCOC4)cc3)c2)[C@H](O)[C@@H](O)[C@@H]1O [empagliflozin]
risk for the composite of cardiovascular death or hospitalization for HF compared with placebo [1]: significantly reduced risk

OC(CNc1nc(-c2cc(-c3ccon3)n(Cc3ccccc3F)n2)ncc1F)(C(F)(F)F)C(F)(F)F [praliciguat]
reduction in HbA1C, change from baseline relative to placebo (participants with HFpEF [2]; general population): 0.18 % points | reduction in diastolic blood pressure, change from baseline relative to placebo (participants with HFpEF [2]; general population): 2.1 mmHg | reduction in systolic blood pressure, change from baseline relative to placebo (participants with HFpEF [2]; general population): 3.5 mmHg | reduction in HbA1C, change from baseline relative to placebo (participants with HFpEF [2]; subpopulation of elderly women): 0.41% | reduction in diastolic blood pressure, change from baseline relative to placebo (participants with HFpEF [2]; subpopulation of elderly women): 8.2 mmHg | reduction in systolic blood pressure, change from baseline relative to placebo (participants with HFpEF [2]; subpopulation of elderly women): 7.9 mmHg | placebo-adjusted LSM difference in change from baseline in 6MWT distance (participants with HFpEF [3]; [12]): −16.7 m | adjusted change in 6-minute walk test (6MWT) distance (participants with HFpEF [3]; 40 mg praliciguat, Primary Analytic Population, Week 12): 41.4 m | improvement in 6MW vs placebo (participants with HFpEF [3]; subpopulation of elderly women): 23 meters | Six Minute Walk Test LS Mean (participants with HFpEF [3]; [13]): 73.6369 | Six Minute Walk Test LS Mean Diff (participants with HFpEF [3]; [14]): 22.7533 | deaths (participants with HFpEF [4]; 40 mg praliciguat, fatal events considered not related to study drug): One death | participants with at least one TEAE of dizziness (participants with HFpEF [4]; human, in vivo, 12 weeks): 9.9% | participants with at least one TEAE of headache (participants with HFpEF [4]; human, in vivo, 12 weeks): 11% | participants with at least one TEAE of hypotension (participants with HFpEF [4]; human, in vivo, 12 weeks): 8.8% | participants with at least one serious TEAE (participants with HFpEF [4]; human, in vivo, 12 weeks): 10% | placebo-adjusted LSM difference in change from baseline in peak VO2 (participants with HFpEF [5]; [12]): -0.30 mL/min/kg | placebo-adjusted LSM difference in change in ventilation/carbon dioxide production slope (participants with HFpEF [5]; [12]): −0.3 | adjusted change from baseline in peak VO2 at Week 12 (participants with HFpEF [5]; 40 mg praliciguat, Primary Analytic Population (n=65), Week 12): -0.26 mL/min/kg | patients with a higher than 1 mL/O2/kg/min improvement in peak VO2 (participants with HFpEF [5]; [15]): About 50% | patients with a higher than 1.5 mL/O2/kg/min improvement in peak VO2 (participants with HFpEF [5]; [15]): 35-40% | placebo-adjusted LSM difference in change from baseline in peak VO2 (participants with HFpEF [5]; post hoc, elderly women (70 years or older), 40 mg praliciguat (n=16) vs placebo (n=18), Week 8): 0.75 mL/min/kg | placebo-adjusted LSM difference in change from baseline in peak VO2 (participants with HFpEF [5]; post hoc, elderly women (70 years or older), 40 mg praliciguat (n=16) vs placebo (n=18), Week 12): 1.58 mL/min/kg | improvement in peak work load (participants with HFpEF [5]; sub-population of elderly women, week 12): about 6.5% | worsening in peak work load (participants with HFpEF [5]; whole population): 1% | Peak Workload LS Mean (participants with HFpEF [5]; [13]): 12.6395 Watts | Peak Workload LS Mean Diff (participants with HFpEF [5]; [14]): 6.5195 Watts

CC(=O)S[C@@H]1CC2=CC(=O)CC[C@]2(C)[C@H]2CC[C@@]3(C)[C@@H](CC[C@@]34CCC(=O)O4)[C@H]12 [spironolactone]
all-cause mortality HR [6]: 0.66

sacubitril-valsartan
rate ratio for sacubitril-valsartan versus valsartan, primary outcome (HF hospitalizations and cardiovascular death) ([7]; men): 1.03 | rate ratio for sacubitril-valsartan versus valsartan, primary outcome (HF hospitalizations and cardiovascular death) ([7]; women): 0.73

CCOC(=O)[C@H](CCc1ccccc1)N[C@@H](C)C(=O)N1CCC[C@H]1C(=O)O [enalapril, reference compound]
NT-proBNP, change from baseline to the end of treatment (obese ZSF1 rats; enalapril alone (ENP group), plasma, FIG. 5): increased

COC(=O)Nc1c(N)nc(-c2nn(Cc3ccccc3F)c3ncc(F)cc23)nc1N [vericiguat]
mean change in the physical limitation score of the KCCQ ([8]; 10-mg group): 6.5 points | mean change in the physical limitation score of the KCCQ ([8]; 15-mg group): 5.5 points | proportion of participants achieving clinically meaningful improvements in KCCQ-clinical summary score ([9]; 10 mg vericiguat compared with placebo arm): larger proportion | change in left atrial volume [9, 16]: NOT different from placebo | change in log NT-proBNP [9, 16]: NOT different from placebo

NC(=O)[C@](O)(CNc1nc(-c2cc(-c3ccon3)n(Cc3ccccc3F)n2)ncc1F)C(F)(F)F [olinciguat]
circulating cholesterol (obese ZSF1 rats; rat, in vivo): lower | circulating glucose (obese ZSF1 rats; rat, in vivo): lower | circulating triglycerides (obese ZSF1 rats; rat, in vivo): lower | renoprotection (obese ZSF1 rats; rat, in vivo): renoprotective | blood pressure [10]: reduced blood pressure | cardioprotection (cardiac weights) [11]: cardioprotective | lung congestion (lung weights) [11]: reduced lung congestion | NT-proBNP levels ([11]; plasma): reduced NT-proBNP levels
